Source: patent publication US7560468B2, “Substituted 1,4,8-triazaspiro[4,5]decan-2-one compounds” (Gruenenthal GmbH, priority 2004, dated 2009)

What was measured:
[1] = tested on: batrachotoxin (BTX) binding site of the sodium channel; experiment: Affinity to the batrachotoxin (BTX) binding site of the sodium channel; details: rat cerebrocortex synaptosomes, [3H]-batrachotoxinin A20 α-benzoate 10 nM; test concentration not given
5-HT transporter = molecular target: T1, 5-HT transporter (Rattus norvegicus, UniProt P31652); experiment: Inhibition of 5-HT uptake in synaptosomes; format: biochemical; details: for inhibition at 1 µM: read-out: Uptake_5-HT, rat, 1 μM, % inhibition
T1 construct: from tissue; host or cells: rat brain synaptosomes (marrow/medulla and pons), P2 fraction
T1 sequence (P31652 whole entry): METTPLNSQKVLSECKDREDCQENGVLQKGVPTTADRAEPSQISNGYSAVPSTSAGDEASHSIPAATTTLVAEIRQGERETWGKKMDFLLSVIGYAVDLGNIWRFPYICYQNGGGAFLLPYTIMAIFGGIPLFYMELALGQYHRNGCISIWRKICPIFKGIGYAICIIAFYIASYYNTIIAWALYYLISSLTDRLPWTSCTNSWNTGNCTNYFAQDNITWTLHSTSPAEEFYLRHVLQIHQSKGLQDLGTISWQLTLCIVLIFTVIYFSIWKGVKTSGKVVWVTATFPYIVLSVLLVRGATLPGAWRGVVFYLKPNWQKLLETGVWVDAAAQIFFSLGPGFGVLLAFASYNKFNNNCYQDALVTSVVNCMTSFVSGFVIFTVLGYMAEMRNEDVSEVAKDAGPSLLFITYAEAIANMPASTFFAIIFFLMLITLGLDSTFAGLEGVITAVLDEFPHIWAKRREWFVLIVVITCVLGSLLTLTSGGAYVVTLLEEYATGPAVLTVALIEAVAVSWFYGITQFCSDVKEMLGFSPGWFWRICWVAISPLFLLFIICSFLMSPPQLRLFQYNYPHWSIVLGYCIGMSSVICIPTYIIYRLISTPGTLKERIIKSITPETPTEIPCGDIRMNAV

NA transporter = experiment: Inhibition of noradrenalin uptake in synaptosomes; format: biochemical
human CB2 receptor = human CB2 receptor (Homo sapiens, UniProt P34972); experiment: Affinity to the cannabinoid receptor CB2, displacement of [3H]-CP 55,940; details: for Inhibition CB2 10 μM, % inhibition: membranes of HEK 293EBNA cells with human CB2 receptor; for inhibition at 10 µM: read-out: Inhibition CB2 10 μM, % inhibition
Chain of human CB2 receptor (P34972 whole entry): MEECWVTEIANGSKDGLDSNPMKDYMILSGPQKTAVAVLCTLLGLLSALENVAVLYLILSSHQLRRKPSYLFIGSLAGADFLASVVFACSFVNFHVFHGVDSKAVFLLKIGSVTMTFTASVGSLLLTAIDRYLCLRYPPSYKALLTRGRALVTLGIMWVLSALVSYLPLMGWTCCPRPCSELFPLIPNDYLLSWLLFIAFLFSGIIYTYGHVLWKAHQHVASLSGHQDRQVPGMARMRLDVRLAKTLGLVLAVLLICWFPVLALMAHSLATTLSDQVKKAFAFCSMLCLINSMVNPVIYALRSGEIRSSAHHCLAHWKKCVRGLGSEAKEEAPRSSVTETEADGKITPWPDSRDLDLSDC
Method: The radioligand used was tritium-labeled 5-(1,1-dimethylheptyl)-2-(5-hydroxypropyl)cyclohexyl)-1-alpha,2-beta,5-alpha)-phenol (^[3]H—CP 55,940 with 103.4 of Ci/mmol, 1 m Ci/mL). Determination was carried out in a test buffer comprising 50 mM of Tris-HCl, 2.5 mm of EDTA, 5 mm of MgCl2 and 1.0 mg/mL of fatty acid-free BSA. The test substances were in each case dissolved in DMSO.
The affinity of the compounds of the invention to the CB2 receptor is determined by their ability to displace ^[3]H—CP from 55,940 of CB2 receptors in membranes of HEK 293 EBNA cells. For this purpose 8 μg of membranes (20 mL of a solution of membranes in a concentration of 400 g/ml) are incubated in wells of a microtiter plate with a 0.33 nM of solution of [3]H-CP 55,949 (120 of Ci/mmol) in a total volume of test buffer of 200 μL for 90 minutes at 30° C.
Subsequently, either the test substances or WIN 55,212-2 for determination the non-specific binding are placed, dissolved in each case in dimethyl sulphoxide, in the wells so that in each case a concentration of the relevant substances of 10 μM is obtained.
Incubation is continued for a further 40 minutes at 30° C. dc. […] The filters are washed nine times with 0.5 mL of ice-cold washing buffer (50 nM of Tris-HCl, 5 mM of MgCl2, 2.5 mm of EDTA, 2% of BSA, pH 7.4), air-dried, placed in scintillation liquid, and the radioactivity is determined with the aid of a scintillation counter.
The percentage displacement of the radio-active ligand ^[3]H—CP 55,940 from its binding to the CB2 receptor is indicated as percentage inhibition of the specific binding. In order to determine Ki the IC50 inhibition concentrations are calculated based on of the percentage displacement achieved by the compounds of the general formula I to be tested at various concentrations causing a 50 percent displacement of the radioactive ligands.

| Structure (SMILES) | BTX Inhibition [1] | Uptake_5-HT, rat, 1 μM, % inhibition (5-HT transporter) [%] | Uptake (NA), rat, 10 μM, % inhibition (NA transporter) [%] | Inhibition CB2 10 μM, % inhibition (human CB2 receptor) [%] | inhibition at 1 µM (5-HT transporter) [%] | inhibition at 10 µM (human CB2 receptor) [%] |
| --- | --- | --- | --- | --- | --- | --- |
| CCOC(=O)CN1C(=O)C(Cc2ccccc2)NC12CCN(S(=O)(=O)c1ccc(OC)cc1)CC2 (centres unmarked) [Example 50, Ethyl[3-benzyl-8-(4-methoxy-benzolsulfonyl)-2-oxo-1,4,8-triazaspiro[4,5]dec-1-yl]-acetate] | 32 | 79 | 38 | 52 | – | – |
| CCCCN1C(=O)C(Cc2ccccc2)NC12CCN(S(=O)(=O)c1ccc(C(C)(C)CC)cc1)CC2 (centres unmarked) [Example 28, 3-Benzyl-1-butyl-8-[4-(1,1-dimethylpropyl)benzolesulfonyl]-1,4,8-triazaspiro[4,5]decan-2-one] | 41 | 75 | – | 40 | – | – |
| CSCCC1NC2(CCN(C(=S)Nc3cc(C(F)(F)F)ccc3Cl)CC2)N(Cc2ccccc2C#N)C1=O (centres unmarked) [Example 147, 1-(2-Cyanobenzyl)-3-(2-methylsulfanylethyl)-2-oxo-1,4,8-triazaspiro[4,5]decan-8-thiocarboxylic acid (2-chloro-5-trifluoromethylbenzol)amide] | 81 | 33 | – | 48 | – | – |
| CCCCN1C(=O)C(Cc2ccccc2)NC12CCN(S(=O)(=O)c1cccc(Cl)c1)CC2 (centres unmarked) [Example 36, 3-Benzyl-1-butyl-8-(3-chlorobenzolsulfonyl)-1,4,8-triazaspiro[4,5]decan-2-one] | 49 | 65 | – | 40 | – | – |
| CC(C)C1NC2(CCN(C(=S)NCc3ccc(F)cc3)CC2)N(Cc2ccccc2)C1=O (centres unmarked) [Example 179, 1-Benzyl-3-isopropyl-2-oxo-1,4,8-triazaspiro[4,5]decan-8-thiocarboxylic acid 4-fluorobenzylamide] | 58 | – | – | – | 47 | 43 |
| C=CCN1C(=O)C(CCSC)NC12CCN(S(=O)(=O)c1ccccc1S(C)(=O)=O)CC2 (centres unmarked) [Example 54, 1-Allyl-8-(2-methansulfonylbenzolsulfonyl)-3-(2-methylsulfanylethyl)-1,4,8-triazaspiro[4,5]decan-2-one] | – | 30 | 46 | 56 | – | – |
| O=C1C(Cc2ccccc2)NC2(CCN(S(=O)(=O)c3ccc([N+](=O)[O-])cc3)CC2)N1Cc1ccccc1 (centres unmarked) [Example 43, 1,3-Dibenzyl-8-(4-nitrobenzolsulfonyl)-1,4,8-triazaspiro[4,5]decan-2-one] | 51 | 71 | – | 62 | – | – |
| CCOc1ccc(NC(=O)N2CCC3(CC2)NC(CCSC)C(=O)N3Cc2ccc3ccccc3c2)cc1 (centres unmarked) [Example 231, 3-(2-Methylsulfanylethyl)-1-naphthalin-2-ylmethyl-2-oxo-1,4,8-triazaspiro[4,5]decan-8-carboxylic acid (4-ethoxy-benzol)amide] | 79 | 59 | – | 49 | – | – |
| CCc1ccc(S(=O)(=O)N2CCC3(CC2)NC(Cc2ccccc2)C(=O)N3Cc2ccccc2)cc1 (centres unmarked) [Example 35, 1,3-Dibenzyl-8-(4-ethylbenzolsulfonyl)-1,4,8-triazaspiro[4,5]decan-2-one] | 54 | 79 | – | 61 | – | – |
| Cc1cc(C)c(C)c(S(=O)(=O)N2CCC3(CC2)NC(Cc2ccccc2)C(=O)N3Cc2ccccc2)c1C (centres unmarked) [Example 24, 1,3-Dibenzyl-8-(2,3,5,6-tetramethylbenzolsulfonyl)-1,4,8-triazaspiro[4,5]decan-2-one] | 67 | 66 | – | 56 | – | – |
| O=C1C(Cc2ccccc2)NC2(CCN(C(=S)NCC3CCCCC3)CC2)N1Cc1ccccc1F (centres unmarked) [Example 171, 3-Benzyl-1-(2-fluorobenzyl)-2-oxo-1,4,8-triazaspiro[4,5]decan-8-thiocarboxylic acid cyclohexylmethylamide] | 86 | – | 34 | – | – | 41 |
| CSCCC1NC2(CCN(C(=S)NCc3ccc(F)cc3)CC2)N(Cc2ccc(F)cc2)C1=O (centres unmarked) [Example 182, 1-(4-Fluorobenzyl)-3-(2-methylsulfanylethyl)-2-oxo-1,4,8-triazaspiro[4,5]decan-8-thiocarboxylic acid 4-fluorobenzylamide] | 69 | – | – | – | 30 | 64 |
| O=C1C(Cc2ccccc2)NC2(CCN(C(=S)Nc3cc(C(F)(F)F)ccc3Cl)CC2)N1Cc1ccccc1F (centres unmarked) [Example 188, 3-Benzyl-1-(2-fluorobenzyl)-2-oxo-1,4,8-triazaspiro[4,5]decan-8-thiocarboxylic acid (2-chloro-5-trifluoromethylbenzol)amide] | 77 | 59 | – | 49 | – | – |
| O=C1C(Cc2ccccc2)NC2(CCN(C(=S)Nc3c(Cl)cccc3Cl)CC2)N1Cc1ccccc1F (centres unmarked) [Example 187, 3-Benzyl-1-(2-fluorobenzyl)-2-oxo-1,4,8-triazaspiro[4,5]decan-8-thiocarboxylic acid (2,6-dichlorobenzol)amide] | 86 | 54 | 39 | 84 | – | – |
| O=C1C(Cc2ccccc2)NC2(CCN(S(=O)(=O)c3cccs3)CC2)N1Cc1ccccc1 (centres unmarked) [Example 16, 1,3-Dibenzyl-8-(thiophen-2-sulfonyl)-1,4,8-triazaspiro[4,5]decan-2-one] | 50 | – | – | – | 82 | 58 |
| CSCCC1NC2(CCN(S(=O)(=O)c3ccccc3Cl)CC2)N(Cc2ccccc2[N+](=O)[O-])C1=O (centres unmarked) [Example 82, 8-(2-Chlorobenzolsulfonyl)-3-(2-methylsulfanylethyl)-1-(2-nitrobenzyl)-1,4,8-triazaspiro[4,5]decan-2-one] | 71 | 49 | – | 56 | – | – |
